What was measured:
Format in all cases: binding
[1] = target: T1, SaBphP1-PCM (PAS-GAF-PHY) (Allostigmatella aurantiaca, UniProt Q097N3, Y262F/T289H); assay: UV-vis absorption spectroscopy of bilin-bound protein; settings: covalent; dark / 700 / 750 nm illumination, room temperature
T1 construct: gene STIAU_3396; photosensory core module PAS-GAF-PHY, residues 1-516, pET28c(+), E. coli BL21(DE3) co-expressing heme oxygenase; dimer; histidine kinase domain absent

[2] = target: T2, SaBphP1-CBD (PAS-GAF) (Allostigmatella aurantiaca, UniProt Q097N3); assay: X-ray crystallography ([…] K, […] A); settings: covalent, Cys18; dark-adapted Pr state; pH 8.5
T2 construct: gene STIAU_3396; crystallographic dimer

[3] = target: T3, SaBphP1-PCM (PAS-GAF-PHY) (Allostigmatella aurantiaca, UniProt Q097N3); assay: X-ray crystallography ([…] K, […] A); settings: covalent, Cys18; dark-adapted Pr state; pH 6.2
T3 construct: gene STIAU_3396; photosensory core module PAS-GAF-PHY, residues 1-516, pET28c(+), E. coli BL21(DE3) co-expressing heme oxygenase; dimer; histidine kinase domain absent

[4] = target: T4, SaBphP1-PCM (PAS-GAF-PHY) (Allostigmatella aurantiaca, UniProt Q097N3, T289H); assay: X-ray crystallography ([…] K, […] A; XFEL […] K, […] A); settings: covalent, Cys18; dark-adapted Pr state; pH 6.2
T4 construct: gene STIAU_3396; photosensory core module PAS-GAF-PHY, residues 1-516, pET28c(+), E. coli BL21(DE3) co-expressing heme oxygenase; dimer; histidine kinase domain absent

[5] = target: T5, SaBphP1-PCM (PAS-GAF-PHY) (Allostigmatella aurantiaca, UniProt Q097N3, D208T/T289H); assay: UV-vis absorption spectroscopy of bilin-bound protein; settings: covalent; 740 / 700 nm illumination, room temperature
T5 construct: gene STIAU_3396; photosensory core module PAS-GAF-PHY, residues 1-516, pET28c(+), E. coli BL21(DE3) co-expressing heme oxygenase; dimer; histidine kinase domain absent
T5 sequence (Q097N3 entry or part of it D208T/T289H): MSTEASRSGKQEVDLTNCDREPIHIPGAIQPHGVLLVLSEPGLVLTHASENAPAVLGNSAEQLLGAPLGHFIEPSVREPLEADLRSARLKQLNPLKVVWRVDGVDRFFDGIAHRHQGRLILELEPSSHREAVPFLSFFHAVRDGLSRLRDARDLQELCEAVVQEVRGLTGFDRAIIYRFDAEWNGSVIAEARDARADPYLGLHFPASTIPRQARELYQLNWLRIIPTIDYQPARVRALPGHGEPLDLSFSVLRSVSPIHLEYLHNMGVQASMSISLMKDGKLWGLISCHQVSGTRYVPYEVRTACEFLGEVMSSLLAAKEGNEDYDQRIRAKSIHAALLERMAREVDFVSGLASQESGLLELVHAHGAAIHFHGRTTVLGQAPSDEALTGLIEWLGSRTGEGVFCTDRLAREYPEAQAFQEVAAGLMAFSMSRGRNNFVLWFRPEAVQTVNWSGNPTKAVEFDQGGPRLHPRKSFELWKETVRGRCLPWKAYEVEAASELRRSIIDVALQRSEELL

T4 sequence (Q097N3 entry or part of it T289H): as the sequence (Q097N3 entry or part of it D208T/T289H) above, with T208D counted along it
T2 sequence (Q097N3 entry or part of it): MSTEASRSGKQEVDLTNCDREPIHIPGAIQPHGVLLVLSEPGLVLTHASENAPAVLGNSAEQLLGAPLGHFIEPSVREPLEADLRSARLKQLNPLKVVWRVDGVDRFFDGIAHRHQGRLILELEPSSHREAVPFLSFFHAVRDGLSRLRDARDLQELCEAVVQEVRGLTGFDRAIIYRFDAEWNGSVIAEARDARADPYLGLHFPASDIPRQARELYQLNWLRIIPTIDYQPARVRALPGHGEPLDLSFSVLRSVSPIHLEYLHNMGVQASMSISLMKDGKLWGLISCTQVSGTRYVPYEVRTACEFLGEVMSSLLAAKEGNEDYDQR
T1 sequence (Q097N3 entry or part of it Y262F/T289H): as the sequence (Q097N3 entry or part of it D208T/T289H) above, with T208D, Y262F counted along it
T3 sequence (Q097N3 entry or part of it): as the sequence (Q097N3 entry or part of it D208T/T289H) above, with T208D, H289T counted along it

C=CC1=C(C)C(=Cc2[nH]c(C=C3N=C(C=C4NC(=O)C(C)=C4C=C)C(C)=C3CCC(=O)O)c(CCC(=O)O)c2C)NC1=O [biliverdin]
UV-vis absorption spectroscopy of bilin-bound protein [1]: the dark-adapted spectrum of the Y262F T289H double mutant | X-ray crystallography (100 K, 2.25 A) [2]: The BV chromophore is bound to Cys18 close to the N-terminus | X-ray crystallography (100 K, 2.25 A) [3]: electron density that appeared in the chromophore binding pocket was interpreted by a biliverdin linked to Cys18 | X-ray crystallography (100 K, 2.65 A; XFEL 293 K, 3.15 A) [4]: the BV A ring tilts with the covalent bond to the Cys18 S atom | UV-vis absorption spectroscopy of bilin-bound protein [5]: The mutation of Asp208 to threonine (D208T) abolishes the formation of a stable E-configuration

Reference: publication PMC6126659, “Structural basis for light control of cell development revealed by crystal structures of a myxobacterial phytochrome” (IUCrJ, 2018)
